Measurements taken from US20230219965A1 (KSQ Therapeutics, Inc., priority 2020, published 2023).
Read-outs that look alike come from different tables or passages of the source.

Experiments:
[1] = test system: Ub-PCNA levels in the nucleus of ES2 cells (USP1 activity); assay: ES2 Ub-PCNA immunofluorescence (IF) assay; format: cell-based; conditions: Homo sapiens, ES-2; ES2 cells, 3 hours, Ub-PCNA immunofluorescence; read-out: USP1 IC50 (Ub-PCNA)
Summary of the method: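 Cells plated overnight, then compound-treated for 3 h at 37° C (0.3% DMSO final), methanol-fixed and stained with anti-Ub-PCNA plus DAPI. Per-nucleus Ub-PCNA intensity imaged; cells above the 95% cutoff of untreated wells counted as positive, and percent positive cells used to derive AC50.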

[2] = molecular target: USP1/UAF1 enzyme (Homo sapiens, UniProt O94782); assay: USP1/UAF1 deubiquitination assay (ubiquitin-rhodamine 110 substrate); format: biochemical; conditions: read-out: USP1 IC50 (Ub-Rho)
USP1/UAF1 enzyme, sequence (O94782 whole entry): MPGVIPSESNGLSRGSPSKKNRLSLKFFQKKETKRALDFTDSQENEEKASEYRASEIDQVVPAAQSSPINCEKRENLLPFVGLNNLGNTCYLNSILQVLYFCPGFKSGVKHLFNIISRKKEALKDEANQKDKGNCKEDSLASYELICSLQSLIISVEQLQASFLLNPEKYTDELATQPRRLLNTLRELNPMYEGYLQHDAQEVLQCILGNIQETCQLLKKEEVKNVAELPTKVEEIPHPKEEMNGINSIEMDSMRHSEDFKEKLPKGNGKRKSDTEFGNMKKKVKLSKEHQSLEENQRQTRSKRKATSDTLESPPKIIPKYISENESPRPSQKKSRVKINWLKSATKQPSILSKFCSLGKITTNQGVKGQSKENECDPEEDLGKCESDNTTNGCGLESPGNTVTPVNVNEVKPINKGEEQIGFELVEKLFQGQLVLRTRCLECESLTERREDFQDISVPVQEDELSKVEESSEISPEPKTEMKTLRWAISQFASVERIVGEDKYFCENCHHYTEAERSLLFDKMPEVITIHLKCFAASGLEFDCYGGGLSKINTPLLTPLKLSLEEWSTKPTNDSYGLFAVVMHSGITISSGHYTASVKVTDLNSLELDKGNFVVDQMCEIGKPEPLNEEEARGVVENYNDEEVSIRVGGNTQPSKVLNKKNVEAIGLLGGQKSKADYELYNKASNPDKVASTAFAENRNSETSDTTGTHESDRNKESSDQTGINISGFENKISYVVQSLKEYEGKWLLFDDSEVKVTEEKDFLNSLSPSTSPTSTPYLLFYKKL
USP1/UAF1 enzyme, sequence (Q8TAF3 whole entry partner): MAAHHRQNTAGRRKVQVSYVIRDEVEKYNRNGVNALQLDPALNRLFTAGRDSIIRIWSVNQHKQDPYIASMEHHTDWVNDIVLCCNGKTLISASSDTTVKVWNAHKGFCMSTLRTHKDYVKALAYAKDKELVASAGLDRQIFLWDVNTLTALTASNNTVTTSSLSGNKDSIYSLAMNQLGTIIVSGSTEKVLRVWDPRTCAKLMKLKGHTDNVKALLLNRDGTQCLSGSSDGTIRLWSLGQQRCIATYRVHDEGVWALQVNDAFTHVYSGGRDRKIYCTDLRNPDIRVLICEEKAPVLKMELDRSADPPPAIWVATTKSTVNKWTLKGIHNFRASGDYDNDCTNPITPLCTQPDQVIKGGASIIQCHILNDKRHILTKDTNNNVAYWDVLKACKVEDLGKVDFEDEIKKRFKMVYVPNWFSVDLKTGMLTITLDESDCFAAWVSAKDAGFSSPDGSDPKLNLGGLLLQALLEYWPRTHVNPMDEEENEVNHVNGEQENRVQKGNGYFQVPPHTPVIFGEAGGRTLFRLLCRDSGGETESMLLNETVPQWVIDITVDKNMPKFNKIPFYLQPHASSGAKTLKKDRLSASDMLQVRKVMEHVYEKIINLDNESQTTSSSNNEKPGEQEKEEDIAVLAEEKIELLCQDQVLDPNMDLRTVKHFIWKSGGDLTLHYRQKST
Summary of the method: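 0.05 nM USP1/UAF1 was preincubated 10 min with compounds (dose response from 10 μM) in 50 mM Tris-HCl pH 7.8, 0.5 mM EDTA, 0.01% BSA, 1 mM DTT, 0.01% Tween-20. 150 nM ubiquitin-rhodamine 110 started the reaction, read kinetically 30 min at Ex480/Em540; IC50 by four-parameter fit versus no-enzyme and DMSO controls.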

[3] = Liver microsomal metabolic stability, rat liver microsomes (RLM); conditions: rat, liver microsomes, t1/2 (min) in RLM, 1 μM compound, 1 mg/mL microsomes, NADPH
[4] = ADME solubility determination in PBS at pH 2.0 and pH 7.4; format: physicochemical; conditions: phosphate buffered saline, 25 °C, thermodynamic from solid
Summary of the method: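 Dried 10 mM DMSO stock residues taken up in PBS pH 7.4 or pH 2.0, shaken 24 h at 25° C. After centrifugation, supernatant quantified by LC-MS/MS against a standard of known concentration, with a dilution factor applied.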

[5] = Liver microsomal metabolic stability, human liver microsomes (HLM); conditions: human, liver microsomes
[6] = pH 2, aqueous buffer, PBS pH 2.0, 25° C., read-out: Solubility at pH 2.0
[7] = pH 7.4, aqueous buffer, PBS pH 7.4, 25° C., read-out: Solubility at pH 7.4

| SMILES | IC50 [1] [nM] | IC50 [2] [nM] | half-life at 1 μM [3] [min] | solubility at 24 h [4, 6] [µM] | solubility at 24 h [4, 7] [µM] | half-life at 1 μM [5] [min] |
| --- | --- | --- | --- | --- | --- | --- |
| CCn1cc(C(F)(F)F)nc1-c1ccc(CN2CCCn3nc(-c4c(OC)ncnc4C4CC4)cc32)cc1F [Example 64] | < 100 | < 100 | < 25 | ≥ 10 | < 10 | < 25 |
| CCn1cc(C(F)(F)F)nc1-c1ccc(C(C)N2CCCn3nc(-c4c(Cl)cnn4C(C)C)cc32)cc1 (stereo not drawn) [Example 65] | < 100 | < 100 | < 25 | < 10 | < 10 | < 25 |
| CCn1cc(C(F)(F)F)nc1-c1ccc(C(C)N2CCCn3nc(-c4c(OC)ncnc4C4CC4)cc32)cc1 (stereo not drawn) [Example 66] | < 100 | < 100 | < 25 | ≥ 10 | < 10 | < 25 |
| Cc1cnn(C(C)C)c1-c1cc2n(n1)CCC(=O)N2Cc1ccc(-c2nc(C(F)(F)F)c[nH]2)cc1 [Example 70] | > 500 | 100 to 500 | < 25 | < 10 | < 10 | < 25 |
| CCn1cc(C(F)(F)F)nc1-c1ccc(CN2C(=O)CCn3nc(-c4c(OC)ncnc4C4CC4)cc32)cc1 [Example 71, 2-(4-cyclopropyl-6-methoxypyrimidin-5-yl)-4-(4-(1-ethyl-4-(trifluoromethyl)-1H-imidazol-2-yl)benzyl)-6,7-dihydropyrazolo[1,5-α]pyrimidin-5(4H)-one] | < 100 | < 100 | > 25 | < 10 | < 10 | > 25 |
| COc1ncnc(C2CC2)c1-c1cc2n(n1)CCC(=O)N2Cc1ccc(-c2nc(C(F)(F)F)cn2C(C)C)cc1 [Example 72] | 100 to 500 | < 100 | > 25 | < 10 | < 10 | > 25 |
| Cc1cnn(C(C)C)c1-c1cc2n(n1)CCC(=O)N2Cc1ccc(-c2nc(C(F)(F)F)cn2C(C)C)cc1 [Example 73] | 100 to 500 | < 100 | < 25 | < 10 | < 10 | < 25 |
| COc1cccc(C)c1-c1cc2n(n1)CCCN2Cc1ccc(-c2nc(C(F)(F)F)cn2C)cc1 [Example 74, 2-(2-methoxy-6-methylphenyl)-4-(4-(1-methyl-4-(trifluoromethyl)-1H-imidazol-2-yl)benzyl)-4,5,6,7-tetrahydropyrazolo[1,5-α]pyrimidine] | > 500 | < 100 | < 25 | ≥ 10 | < 10 | < 25 |
| COc1cccc(C)c1-c1cc2n(n1)CCC(=O)N2Cc1ccc(-c2nc(C(F)(F)F)cn2C)cc1 [Example 75, 2-(2-methoxy-6-methylphenyl)-4-(4-(1-methyl-4-(trifluoromethyl)-1H-imidazol-2-yl)benzyl)-6,7-dihydropyrazolo[1,5-α]pyrimidin-5(4H)-one] | 100 to 500 | < 100 | < 25 | ≥ 10 | < 10 | < 25 |
| CCn1cc(C(F)(F)F)nc1-c1ccc(CN2C(=O)CCn3nc(-c4c(OC)ncnc4C4CC4)cc32)cc1F [Example 78] | < 100 | < 100 | > 25 | < 10 | < 10 | > 25 |
| CC(C)n1ncc(Cl)c1-c1cc2n(n1)CCC(=O)N2Cc1ccc(-c2nc(C(F)(F)F)cn2CCF)cc1 [Example 79] | < 100 | < 100 | > 25 | < 10 | < 10 | > 25 |
| COc1ncnc(C2CC2)c1-c1cc2n(n1)CCC(=O)N2Cc1ccc(-n2nc(C(F)(F)F)cc2OC)cc1 [Example 80] | 100 to 500 | < 100 | > 25 | < 10 | < 10 | > 25 |
| Cc1cc(C(F)(F)F)nn1-c1ccc(CN2C(=O)CCn3nc(-c4c(Cl)cnn4C(C)C)cc32)cc1 [Example 86] | 100 to 500 | < 100 | > 25 | < 10 | < 10 | > 25 |
| CC(C)n1cc(C(F)(F)F)nc1-c1ccc(CN2C(=O)CCn3nc(-c4c(Cl)cnn4C(C)C)cc32)cc1 [Example 91] | < 100 | < 100 | > 25 | < 10 | < 10 | > 25 |
| COc1cc(C(F)(F)F)nn1-c1ccc(CN2C(=O)CCn3nc(-c4c(Cl)cnn4C(C)C)cc32)cc1 [Example 96] | < 100 | < 100 | > 25 | < 10 | < 10 | > 25 |
| CCn1cc(C(F)(F)F)nc1-c1ccc(CN2C(=O)CCn3nc(-c4c(Cl)cnn4C(C)C)cc32)cc1 [Example 97] | < 100 | < 100 | > 25 | < 10 | < 10 | > 25 |
| CC(C)n1ncc(Cl)c1-c1cc2n(n1)CCC(=O)N2Cc1ccc(-c2nc(C(F)(F)F)cn2C)cc1 [Example 98] | < 100 | < 100 | > 25 | < 10 | < 10 | > 25 |
| COc1ncnc(C2CC2)c1-c1cc2n(n1)CCC(=O)N2Cc1ccc(-n2nc(C(F)(F)F)cc2C)c(F)c1 [Example 103] | 100 to 500 | < 100 | > 25 | < 10 | < 10 | > 25 |
| Cc1cc(C(F)(F)F)nn1-c1ccc(CN2C(=O)CCn3nc(-c4c(Cl)cnn4C(C)C)cc32)cc1F [Example 104] | 100 to 500 | < 100 | > 25 | < 10 | < 10 | > 25 |
| COc1cc(CN2C(=O)CCn3nc(-c4c(OC)ncnc4C4CC4)cc32)ccc1-c1nc(C(F)(F)F)cn1C(C)C [Example 108] | < 100 | < 100 | > 25 | ≥ 10 | < 10 | > 25 |
| COc1cc(CN2C(=O)CCn3nc(-c4c(Cl)cnn4C(C)C)cc32)ccc1-c1nc(C(F)(F)F)cn1C(C)C [Example 109] | < 100 | < 100 | > 25 | < 10 | < 10 | > 25 |
| CCn1cc(C(F)(F)F)nc1-c1ccc(CN2C(=O)CCn3nc(-c4c(Cl)cnn4C(C)C)cc32)cn1 [Example 111] | 100 to 500 | < 100 | > 25 | < 10 | < 10 | > 25 |
| CCn1cc(C(F)(F)F)nc1-c1ccc(C(C)N2C(=O)CCn3nc(-c4c(Cl)cnn4C(C)C)cc32)cc1 (stereo not drawn) [Example 113] | < 100 | < 100 | < 25 | < 10 | < 10 | < 25 |
| CCn1cc(C(F)(F)F)nc1-c1ccc(C(C)N2C(=O)CCn3nc(-c4c(OC)ncnc4C4CC4)cc32)cc1 (stereo not drawn) [Example 114] | 100 to 500 | < 100 | < 25 | ≥ 10 | ≥ 10 | > 25 |
| CCOc1cc(C(F)(F)F)nn1-c1ccc(CN2C(=O)CCn3nc(-c4c(Cl)cnn4C(C)C)cc32)cc1 [Example 115] | < 100 | < 100 | > 25 | < 10 | < 10 | > 25 |
| CC(C)n1ncc(Cl)c1-c1cc2n(n1)CCC(=O)N2Cc1ccc(-c2cn(C)c(C(F)(F)F)n2)cc1 [Example 116] | 100 to 500 | < 100 | > 25 | < 10 | < 10 | > 25 |
| CCn1cc(Cl)nc1-c1ccc(CN2C(=O)CCn3nc(-c4c(Cl)cnn4C(C)C)cc32)cc1 [Example 118] | < 100 | < 100 | < 25 | < 10 | < 10 | < 25 |
| CCn1cc(C(F)(F)F)nc1-c1ccc(C(C)N2C(=O)CCn3nc(-c4c(Cl)cnn4C(C)C)cc32)cc1F (stereo not drawn) [Example 119] | < 100 | < 100 | < 25 | < 10 | < 10 | > 25 |
